According to the supplement of paper PMC10307832:

Key:
Assay in all cases: relative viability (nuclei count vs DMSO), 5 days (fraction); higher = more cells survive
Omipalisib = compound: COc1ncc(-c2ccc3nccc(-c4ccnnc4)c3c2)cc1NS(=O)(=O)c1ccc(F)cc1F [Omipalisib]
Summary of the method: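 A plate was accepted only when its control CV was below 25% and the cells had doubled at least once. Viability is defined from nuclear counts as treated wells divided by vehicle wells, with the median taken across plates. That median covers lung cancer cell lines grown in 1536-well plates, dosed by pinning at five √10-spaced library-drug concentrations, and counted in MetaXpress from 4× Hoechst images after 5 days.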

Omipalisib + Palbociclib = compound: COc1ncc(-c2ccc3nccc(-c4ccnnc4)c3c2)cc1NS(=O)(=O)c1ccc(F)cc1F [Omipalisib] + CC(=O)c1c(C)c2cnc(Nc3ccc(N4CCNCC4)cn3)nc2n(C2CCCC2)c1=O [Palbociclib] (partner 0.5 µM)
Summary of the method: (§1)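 Lung cancer cell lines in 1536-well plates got either a single drug or a fixed anchor-drug dose together with five library-drug doses (not always all listed) in √10 steps, by pin tool, on the day after seeding. Nuclei were counted after 5 days, and relative viability is the treated-to-vehicle ratio of nuclei counts. Values are medians of duplicate plates.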

Omipalisib + Decitabine = compound: COc1ncc(-c2ccc3nccc(-c4ccnnc4)c3c2)cc1NS(=O)(=O)c1ccc(F)cc1F [Omipalisib] + Nc1ncn([C@H]2C[C@H](O)[C@@H](CO)O2)c(=O)n1 [Decitabine] (partner 2 µM)
Summary of the method: as §1

PC-14
relative viability (Omipalisib; 0.0003 µM): 1.05 | relative viability (Omipalisib; 0.003 µM): 1.05 | relative viability (Omipalisib; 0.03 µM): 0.795 | relative viability (Omipalisib + Palbociclib; first compound 0.0003 µM): 0.521 | relative viability (Omipalisib + Palbociclib; first compound 0.003 µM): 0.614 | relative viability (Omipalisib + Palbociclib; first compound 0.03 µM): 0.327 | relative viability (Omipalisib + Decitabine; first compound 0.0003 µM): 0.19 | relative viability (Omipalisib + Decitabine; first compound 0.003 µM): 0.248 | relative viability (Omipalisib + Decitabine; first compound 0.03 µM): 0.222
